This test deals with Proteasome. The experiment in a line: Inhibitory activity against 20S proteosome. The class given is subcellular.

Regarding `CC[C@H](C)[C@H](NC(=O)[C@H]([C@@H](C)CC)N(C)C(C)=O)C(=O)N[C@H](C(=O)N[C@@H](CC(C)C)C(=O)[C@@]1(C)CO1)[C@@H](C)O`, the k obs / 1 was 37200 M⁻¹ s⁻¹.
With `CC[C@@H](C)[C@H](NC(=O)[C@H]([C@@H](C)CC)N(C)C(C)=O)C(=O)N[C@H](C(=O)N[C@@H](CC(C)C)C(=O)[C@@]1(C)CO1)[C@@H](C)O` the figure was 246 M⁻¹ s⁻¹.

The record behind these values is ChEMBL document CHEMBL1131830, “Total synthesis of the potent proteasome inhibitor epoxomicin: a useful tool for understanding proteasome biology” (Bioorg Med Chem Lett, 1999).
